Source: patent publication US20230023092A1, “TREATMENT OF DEPRESSION AND OTHER VARIOUS DISORDERS WITH PSILOCYBIN” (COMPASS […], priority 2019, published 2023)

Legend:
Format in all cases: in vivo, human
healthy subjects [1] = assay: Pictorial Empathy Test (PET)
Description: In some embodiments, the Pictorial Empathy Test (PET) is utilized to evaluate the effect of psilocybin on affective empathy.
(§1) The Pictorial Empathy Test (PET), Reading the Mind in the Eyes Test (RMET), Scale of Social Responsibility (SSR), Social Value Orientation (SVO), and Toronto Empathy Questionnaire (TEQ) were performed. Table 20 summarizes the results of the mixed model for repeated measures (MMRM) analysis for each of the aforementioned social cognition panel scales measured on Day 7 and Day 84 after study drug administration.

healthy subjects [2] = assay: Reading the Mind in the Eyes Test (RMET)
Text: In some embodiments, Reading the Mind in the Eyes Test (RMET) is utilized to evaluate the safety and/or efficacy of psilocybin. The RMET has 36 items, in which subjects are presented with a photograph of the eyes region of the face and must choose 1 of 4 adjectives or phrases to describe the mental state of the person pictured. A definition handout is provided at the beginning of the task and a practice item precedes the first trial.
as §1

healthy subjects [3] = assay: Toronto Empathy Questionnaire (TEQ); conditions: Day 7
Text: In some embodiments, the Toronto Empathy Questionnaire (TEQ) is utilized to evaluate the safety and/or efficacy of psilocybin. The TEQ represents empathy as a primarily emotional process. […] The TEQ is a brief, reliable and valid instrument for the assessment of empathy. In some embodiments, after treating according to the methods of the disclosure, a subject's TEQ score increases by about 5%, about 10%, about 15%, about 20%, about 25%, about 30%, about 35%, about 40%, about 45%, about 50%, about 55%, about 60%, about 65%, about 70%, about 75%, about 80%, about 85%, about 90%, about 95%, or about 100%, about 110%, about 120%, about 130%, about 140%, about 150%, about 160%, about 170%, about 180%, about 190%, about 200%, about 210%, about 220%, about 230%, about 240%, about 250%, about 260%, about 270%, about 280%, about 290%, or about 300%, or more, compared to prior to treatment.
as §1

[4] = Day 7, psilocybin 10 mg - placebo
[5] = Day 7, psilocybin 25 mg - 10 mg
[6] = Day 7, psilocybin 25 mg - placebo
[7] = Day 84, psilocybin 10 mg - placebo
[8] = Day 84, psilocybin 25 mg - 10 mg
[9] = Day 84, psilocybin 25 mg - placebo

`CN(C)CCc1c[nH]c2cccc(OP(=O)(O)O)c12` [Psilocybin, psilocybin] was tested, and the “PET change from baseline (LS mean)” value (healthy subjects [1]; Day 7, psilocybin 10 mg) was −0.3, the “PET change from baseline, LS mean difference” value (healthy subjects [1]; [4]) was −0.1 and the “PET change from baseline (LS mean)” value (healthy subjects [1]; Day 7, psilocybin 25 mg) was 0.0. For the same compound, the “PET change from baseline, LS mean difference” value (healthy subjects [1]; [5]) was 0.3, the “PET change from baseline, LS mean difference” value (healthy subjects [1]; [6]) was 0.2 and the “PET change from baseline (LS mean)” value (healthy subjects [1]; Day 84, psilocybin 10 mg) was −0.3. The “PET change from baseline, LS mean difference” value (healthy subjects [1]; [7]) was −0.1, the “PET change from baseline (LS mean)” value (healthy subjects [1]; Day 84, psilocybin 25 mg) was −0.1 and the “PET change from baseline, LS mean difference” value (healthy subjects [1]; [8]) was 0.3. For the same compound, the “PET change from baseline, LS mean difference” value (healthy subjects [1]; [9]) was 0.1, the “RMET change from baseline (LS mean)” value (healthy subjects [2]; Day 7, psilocybin 10 mg) was 0.4 and the “RMET change from baseline, LS mean difference” value (healthy subjects [2]; [4]) was 0.1. For the same compound, the “RMET change from baseline (LS mean)” value (healthy subjects [2]; Day 7, psilocybin 25 mg) was 0.4, the “RMET change from baseline, LS mean difference” value (healthy subjects [2]; [5]) was 0.0 and the “RMET change from baseline, LS mean difference” value (healthy subjects [2]; [6]) was 0.2. For the same compound, the “RMET change from baseline (LS mean)” value (healthy subjects [2]; Day 84, psilocybin 10 mg) was 0.1, the “RMET change from baseline, LS mean difference” value (healthy subjects [2]; [7]) was 0.2 and the “RMET change from baseline (LS mean)” value (healthy subjects [2]; Day 84, psilocybin 25 mg) was 0.4. For the same compound, the “RMET change from baseline, LS mean difference” value (healthy subjects [2]; [8]) was 0.3, the “RMET change from baseline, LS mean difference” value (healthy subjects [2]; [9]) was 0.5 and the “TEQ change from baseline (LS mean)” value (healthy subjects [3]; psilocybin 10 mg) was −0.1. The “TEQ change from baseline, LS mean difference” value (healthy subjects [3]; psilocybin 10 mg - placebo) was 0.1, the “TEQ change from baseline (LS mean)” value (healthy subjects [3]; psilocybin 25 mg) was 0.0 and the “TEQ change from baseline, LS mean difference” value (healthy subjects [3]; psilocybin 25 mg - 10 mg) was 0.1. For the same compound, the “TEQ change from baseline, LS mean difference” value (healthy subjects [3]; psilocybin 25 mg - placebo) was 0.2.
